The source of these data is article PMC5218480 (PLoS ONE, 2017).

In the experiment the test system is MV-4-11 cells. Description: Gene expression microarray analysis (Affymetrix PrimeView) and GSEA. Also on record: RFU PODN (11730768_x_at) / Fold change /veh PODN (11730768_x_at) / RFU LINC00158 (11744669_a_at) / Fold change /veh LINC00158 (11744669_a_at) / RFU DUSP10 (11751237_a_at) / Fold change /veh DUSP10 (11751237_a_at) / RFU ID3 (11757404_x_at) / Fold change /veh ID3 (11757404_x_at) / RFU PLEKHG5 (11737974_s_at) / Fold change /veh PLEKHG5 (11737974_s_at) / RFU LRRC4B (11730491_at) / Fold change /veh LRRC4B (11730491_at) / RFU GIMAP4 (11747438_a_at) / Fold change /veh GIMAP4 (11747438_a_at) / RFU KRT8 (11758183_x_at) / Fold change /veh KRT8 (11758183_x_at) / RFU CNN1 (11734310_a_at) / Fold change /veh CNN1 (11734310_a_at) / RFU VPS37D (11726825_at) / Fold change /veh VPS37D (11726825_at) / RFU C10orf10 (11716522_x_at) / Fold change /veh C10orf10 (11716522_x_at) / RFU KIR2DL2 /// KIR2DL4 /// KIR2DL5A /// KIR2DL5B /// KIR2DS1 /// KIR2DS2 /// KIR2DS3 /// KIR2DS4 /// KIR3DL3 /// KIR3DL3 /// KIR3DS1 (11738374_at) / Fold change /veh KIR2DL2 /// KIR2DL4 /// KIR2DL5A /// KIR2DL5B /// KIR2DS1 /// KIR2DS2 /// KIR2DS3 /// KIR2DS4 /// KIR3DL3 /// KIR3DL3 /// KIR3DS1 (11738374_at) / RFU C1QL1 (11718748_at) / Fold change /veh C1QL1 (11718748_at) / RFU TMPRSS4 (11747572_a_at) / Fold change /veh TMPRSS4 (11747572_a_at) / RFU HAMP (11756126_x_at) / Fold change /veh HAMP (11756126_x_at) / RFU RNFT2 (11725882_a_at) / Fold change /veh RNFT2 (11725882_a_at) / RFU NR4A2 (11747474_a_at) / Fold change /veh NR4A2 (11747474_a_at) / RFU ABCC12 (11746883_a_at) / Fold change /veh ABCC12 (11746883_a_at) / RFU TMEM136 (11760407_x_at) / Fold change /veh TMEM136 (11760407_x_at) / RFU CLDN22 /// WWC2 (11732394_at) / Fold change /veh CLDN22 /// WWC2 (11732394_at) / RFU HLA-DPB1 (11760878_x_at) / Fold change /veh HLA-DPB1 (11760878_x_at) / RFU SPINT1 (11716480_a_at) / Fold change /veh SPINT1 (11716480_a_at) / RFU GAP43 (11754022_s_at) / Fold change /veh GAP43 (11754022_s_at) / RFU A4GNT (11735810_at) / Fold change /veh A4GNT (11735810_at) / RFU PRB3 (11715151_x_at) / Fold change /veh PRB3 (11715151_x_at) / RFU TUBB4B (11761932_at) / Fold change /veh TUBB4B (11761932_at) / RFU CAPN14 (11732068_a_at) / Fold change /veh CAPN14 (11732068_a_at) / RFU TMCC2 (11721928_a_at) / Fold change /veh TMCC2 (11721928_a_at) / RFU IRGQ (11745062_a_at) / Fold change /veh IRGQ (11745062_a_at) / RFU FAM174B (11720279_a_at) / Fold change /veh FAM174B (11720279_a_at) / RFU TMPRSS4 (11748680_a_at) / Fold change /veh TMPRSS4 (11748680_a_at) / RFU FAM212B (11763350_a_at) / Fold change /veh FAM212B (11763350_a_at) / RFU PLEKHG5 (11743358_a_at) / Fold change /veh PLEKHG5 (11743358_a_at) / RFU ZSCAN30 (11745921_a_at) / Fold change /veh ZSCAN30 (11745921_a_at) / RFU CMKLR1 (11741424_a_at) / Fold change /veh CMKLR1 (11741424_a_at) / RFU LOC101060620 /// MAPK8IP1 (11723275_at) / Fold change /veh LOC101060620 /// MAPK8IP1 (11723275_at) / RFU SPTSSB (11747773_x_at) / Fold change /veh SPTSSB (11747773_x_at) / RFU PRSS12 (11739890_at) / Fold change /veh PRSS12 (11739890_at) / RFU BIN1 (11741810_x_at) / Fold change /veh BIN1 (11741810_x_at) / RFU WNT11 (11732464_a_at) / Fold change /veh WNT11 (11732464_a_at) / RFU C10orf10 (11716521_a_at) / Fold change /veh C10orf10 (11716521_a_at) / RFU C5orf56 (11738089_at) / Fold change /veh C5orf56 (11738089_at) / RFU CYB561 (11721691_x_at) / Fold change /veh CYB561 (11721691_x_at) / RFU ANKRD19P (11752326_a_at) / Fold change /veh ANKRD19P (11752326_a_at) / RFU OR2T12 /// OR2T33 /// OR2T8 (11738714_s_at) / Fold change /veh OR2T12 /// OR2T33 /// OR2T8 (11738714_s_at) / RFU VCAN (11748164_a_at) / Fold change /veh VCAN (11748164_a_at) / RFU JSRP1 (11732532_at) / Fold change /veh JSRP1 (11732532_at) / RFU KRTAP10-11 (11738290_x_at) / Fold change /veh KRTAP10-11 (11738290_x_at) / RFU MYO3A (11730013_a_at) / Fold change /veh MYO3A (11730013_a_at) / RFU EBF3 (11725865_a_at) / Fold change /veh EBF3 (11725865_a_at) / RFU CAMK2N1 (11719241_x_at) / Fold change /veh CAMK2N1 (11719241_x_at) / RFU C5orf56 (11738088_a_at) / Fold change /veh C5orf56 (11738088_a_at) / RFU OLFML3 (11715873_a_at) / Fold change /veh OLFML3 (11715873_a_at) / RFU LOC100653217 /// NTM (11731650_a_at) / Fold change /veh LOC100653217 /// NTM (11731650_a_at) / RFU MAPK11 (11762145_a_at) / Fold change /veh MAPK11 (11762145_a_at) / RFU FIZ1 (11724087_x_at) / Fold change /veh FIZ1 (11724087_x_at) / RFU OASL (11726364_x_at) / Fold change /veh OASL (11726364_x_at) / RFU SOX15 (11748057_x_at) / Fold change /veh SOX15 (11748057_x_at) / RFU CD79A (11719716_a_at) / Fold change /veh CD79A (11719716_a_at) / RFU HIST1H1D (11736915_at) / Fold change /veh HIST1H1D (11736915_at) / RFU CASKIN2 (11723855_a_at) / Fold change /veh CASKIN2 (11723855_a_at) / RFU LOC730098 (11760151_x_at) / Fold change /veh LOC730098 (11760151_x_at) / RFU OR4N2 (11742367_at) / Fold change /veh OR4N2 (11742367_at) / RFU PRRT2 (11749266_a_at) / Fold change /veh PRRT2 (11749266_a_at) / RFU SNX32 (11753110_a_at) / Fold change /veh SNX32 (11753110_a_at) / RFU CDHR5 (11726645_a_at) / Fold change /veh CDHR5 (11726645_a_at) / RFU RCAN1 (11760418_a_at) / Fold change /veh RCAN1 (11760418_a_at) / RFU FAM167A (11723789_a_at) / Fold change /veh FAM167A (11723789_a_at) / RFU FAM26E (11764081_at) / Fold change /veh FAM26E (11764081_at) / RFU ISYNA1 (11749810_s_at) / Fold change /veh ISYNA1 (11749810_s_at) / RFU ACY1 (11761880_at) / Fold change /veh ACY1 (11761880_at) / RFU 11764098_at / Fold change /veh 11764098_at / RFU SAMD14 (11745864_x_at) / Fold change /veh SAMD14 (11745864_x_at) / RFU NPB (11741838_a_at) / Fold change /veh NPB (11741838_a_at) / RFU TMPRSS6 (11731388_a_at) / Fold change /veh TMPRSS6 (11731388_a_at) / RFU KRTAP10-2 (11738614_at) / Fold change /veh KRTAP10-2 (11738614_at) / RFU ARHGAP8 /// PRR5-ARHGAP8 (11727945_x_at) / Fold change /veh ARHGAP8 /// PRR5-ARHGAP8 (11727945_x_at) / RFU KRTAP5-7 /// NADSYN1 (11734609_at) / Fold change /veh KRTAP5-7 /// NADSYN1 (11734609_at) / RFU RASL12 (11751679_a_at) / Fold change /veh RASL12 (11751679_a_at) / RFU CDKN2B (11736163_a_at) / Fold change /veh CDKN2B (11736163_a_at) / RFU PRF1 (11729649_at) / Fold change /veh PRF1 (11729649_at) / RFU, ZNF638 /// ZNF638-IT1 / Fold change vs veh, ZNF638 /// ZNF638-IT1 / RFU, PANK3 / Fold change vs veh, PANK3 / RFU, SH3YL1 / Fold change vs veh, SH3YL1 / RFU, ZEB2 / Fold change vs veh, ZEB2 / RFU, NRIP1 / Fold change vs veh, NRIP1 / RFU, PTTG1IP / Fold change vs veh, PTTG1IP / RFU, CAPN2 / Fold change vs veh, CAPN2 / RFU, MED14 / Fold change vs veh, MED14 / RFU, SNORA58 / Fold change vs veh, SNORA58 / RFU, C1orf63 / Fold change vs veh, C1orf63 / RFU, LRRFIP1 / Fold change vs veh, LRRFIP1 / RFU, NDUFAF7 / Fold change vs veh, NDUFAF7 / RFU, SLC12A2 / Fold change vs veh, SLC12A2 / RFU, IBTK / Fold change vs veh, IBTK / RFU, ESF1 / Fold change vs veh, ESF1 / Fold change vs veh, TMEM50B / RFU, TAOK1 / Fold change vs veh, TAOK1 / RFU, ACBD3 / Fold change vs veh, ACBD3 / RFU, TMA16 / Fold change vs veh, TMA16 / RFU, RWDD3 / Fold change vs veh, RWDD3 / RFU, BCAT1 / Fold change vs veh, BCAT1 / RFU, EDEM3 / Fold change vs veh, EDEM3 / RFU, TMEM33 / Fold change vs veh, TMEM33 / RFU, WDR75 / Fold change vs veh, WDR75 / RFU, AHCTF1 / Fold change vs veh, AHCTF1 / RFU, TFRC / Fold change vs veh, TFRC / RFU, ZDHHC17 / Fold change vs veh, ZDHHC17 / RFU, NOM1 / Fold change vs veh, NOM1 / RFU, ARL8B / Fold change vs veh, ARL8B / RFU, ZBTB11 / Fold change vs veh, ZBTB11 / RFU, TAMM41 / Fold change vs veh, TAMM41 / RFU, KIAA1704 /// LOC100996395 / Fold change vs veh, KIAA1704 /// LOC100996395 / RFU, ING1 / Fold change vs veh, ING1 / RFU, TRMT61B / Fold change vs veh, TRMT61B / RFU, FUBP3 / Fold change vs veh, FUBP3 / RFU, TP53 / Fold change vs veh, TP53 / RFU, TNKS2 / Fold change vs veh, TNKS2 / RFU, ZFP14 / Fold change vs veh, ZFP14 / RFU, ACTR2 / Fold change vs veh, ACTR2 / RFU, PPP3R1 / Fold change vs veh, PPP3R1 / RFU, PIK3R1 / Fold change vs veh, PIK3R1 / RFU, HNRNPA1 / Fold change vs veh, HNRNPA1 / RFU, RNF170 / Fold change vs veh, RNF170 / RFU, ZNF28 / Fold change vs veh, ZNF28 / RFU, RNGTT / Fold change vs veh, RNGTT / RFU, OGT / Fold change vs veh, OGT / RFU, BRD1 / Fold change vs veh, BRD1 / RFU, MARS / Fold change vs veh, MARS / RFU, ZNF655 / Fold change vs veh, ZNF655 / RFU, FAHD1 / Fold change vs veh, FAHD1 / RFU, BDP1 / Fold change vs veh, BDP1 / RFU, LRRCC1 / Fold change vs veh, LRRCC1 / RFU, ARID1A / Fold change vs veh, ARID1A / RFU, ZNF146 / Fold change vs veh, ZNF146 / RFU, ZNF330 / Fold change vs veh, ZNF330 / RFU, GPN3 / Fold change vs veh, GPN3 / RFU, C9orf123 / Fold change vs veh, C9orf123 / RFU, N4BP2L2 / Fold change vs veh, N4BP2L2 / RFU, ARFIP1 / Fold change vs veh, ARFIP1 / RFU, FAM179B / Fold change vs veh, FAM179B / RFU, BCL10 / Fold change vs veh, BCL10 / RFU, UHRF1BP1L / Fold change vs veh, UHRF1BP1L / RFU, BET1 / Fold change vs veh, BET1 / RFU, CNOT2 / Fold change vs veh, CNOT2 / RFU, ZNF268 / Fold change vs veh, ZNF268 / Fold change vs veh, ZNF507 / RFU, DGCR2 / Fold change vs veh, DGCR2 / RFU, WDSUB1 / Fold change vs veh, WDSUB1 / Fold change vs veh, HSP90B1 /// MIR3652 / RFU, ADSS / Fold change vs veh, ADSS / RFU, GK / Fold change vs veh, GK / RFU, ZNF148 / Fold change vs veh, ZNF148 / RFU, TAF9 / Fold change vs veh, TAF9 / RFU, SLC1A5 / Fold change vs veh, SLC1A5 / RFU, SLMO2 / Fold change vs veh, SLMO2 / RFU, ABCC4 / Fold change vs veh, ABCC4 / RFU, LOC101060439 /// RAP1B / Fold change vs veh, LOC101060439 /// RAP1B / RFU, RFX7 / Fold change vs veh, RFX7 / RFU, GTPBP10 / Fold change vs veh, GTPBP10 / RFU, CNEP1R1 / Fold change vs veh, CNEP1R1 / RFU, BIVM-ERCC5 /// ERCC5 / Fold change vs veh, BIVM-ERCC5 /// ERCC5 / RFU, ILF3 / Fold change vs veh, ILF3 / RFU 11762660_at / Fold change /veh 11762660_at / RFU VCAN (11757783_s_at) / Fold change /veh VCAN (11757783_s_at) / RFU DDX43 (11728927_at) / Fold change /veh DDX43 (11728927_at) / RFU KRT8 (11758188_x_at) / Fold change /veh KRT8 (11758188_x_at) / RFU NKD1 (11759106_at) / Fold change /veh NKD1 (11759106_at) / RFU SRD5A1 (11742802_a_at) / Fold change /veh SRD5A1 (11742802_a_at) / RFU TPSAB1 /// TPSB2 (11721975_s_at) / Fold change /veh TPSAB1 /// TPSB2 (11721975_s_at) / RFU GSTM3 (11746129_a_at) / Fold change /veh GSTM3 (11746129_a_at) / RFU IL23R (11737362_x_at) / Fold change /veh IL23R (11737362_x_at) / RFU TMEM51 (11727254_a_at) / Fold change /veh TMEM51 (11727254_a_at) / RFU PIWIL2 (11732686_x_at) / Fold change /veh PIWIL2 (11732686_x_at) / RFU ORM1 (11744905_x_at) / Fold change /veh ORM1 (11744905_x_at) / RFU CCDC152 (11743942_at) / Fold change /veh CCDC152 (11743942_at) / RFU ECM1 (11717891_a_at) / Fold change /veh ECM1 (11717891_a_at) / RFU IL23R (11748794_a_at) / Fold change /veh IL23R (11748794_a_at) / RFU TNFAIP8L3 (11732012_x_at) / Fold change /veh TNFAIP8L3 (11732012_x_at) / RFU MBOAT4 (11741988_at) / Fold change /veh MBOAT4 (11741988_at) / RFU 11764193_at / Fold change /veh 11764193_at / RFU TMEM53 (11763286_at) / Fold change /veh TMEM53 (11763286_at) / RFU MAGEB2 (11727129_at) / Fold change /veh MAGEB2 (11727129_at) / RFU TMEM200A (11744735_a_at) / Fold change /veh TMEM200A (11744735_a_at) / RFU CCDC152 (11751479_a_at) / Fold change /veh CCDC152 (11751479_a_at) / RFU FAM211A (11726209_a_at) / Fold change /veh FAM211A (11726209_a_at) / RFU RGS16 (11746705_a_at) / Fold change /veh RGS16 (11746705_a_at) / RFU VCAN (11755009_s_at) / Fold change /veh VCAN (11755009_s_at) / RFU RHOB (11743442_s_at) / Fold change /veh RHOB (11743442_s_at) / RFU RGS16 (11720943_a_at) / Fold change /veh RGS16 (11720943_a_at) / RFU RGS16 (11720944_at) / Fold change /veh RGS16 (11720944_at) / RFU, VPS4B / Fold change vs veh, VPS4B / RFU, CREB1 / Fold change vs veh, CREB1 / RFU, DNAJC13 / Fold change vs veh, DNAJC13 / RFU, GNAQ / Fold change vs veh, GNAQ / RFU, CDK5R1 / Fold change vs veh, CDK5R1 / RFU, ZRANB3 / Fold change vs veh, ZRANB3 / RFU, CUL4A / Fold change vs veh, CUL4A / RFU, CCNY / Fold change vs veh, CCNY / RFU, UFL1 / Fold change vs veh, UFL1 / RFU, COG3 / Fold change vs veh, COG3 / RFU, DIAPH2 / Fold change vs veh, DIAPH2 / RFU, SKA2 / Fold change vs veh, SKA2 / RFU, AFF3 / Fold change vs veh, AFF3 / RFU, LMF1 / Fold change vs veh, LMF1 / RFU, IPO11 / Fold change vs veh, IPO11 / RFU, DFFB / Fold change vs veh, DFFB / RFU, FOXP1 / Fold change vs veh, FOXP1 / RFU, CARD8 / Fold change vs veh, CARD8 / RFU, STRN3 / Fold change vs veh, STRN3 / RFU, ADK / Fold change vs veh, ADK / RFU, RASSF2 / Fold change vs veh, RASSF2 / RFU, WIPF1 / Fold change vs veh, WIPF1 / RFU, LARP1B / Fold change vs veh, LARP1B / RFU, RASA1 / Fold change vs veh, RASA1 / RFU, RB1 / Fold change vs veh, RB1 / RFU, PPFIA1 / Fold change vs veh, PPFIA1 / RFU, MAT2A / Fold change vs veh, MAT2A / RFU, CCT5 / Fold change vs veh, CCT5 / RFU, WDR92 / Fold change vs veh, WDR92 / RFU, CUX1 / Fold change vs veh, CUX1 / RFU, TTC7A / Fold change vs veh, TTC7A / RFU, TMEM135 / Fold change vs veh, TMEM135 / RFU, DEPTOR / Fold change vs veh, DEPTOR / RFU, CPM / Fold change vs veh, CPM / RFU, DNAJB6 / Fold change vs veh, DNAJB6 / RFU, CACNA2D3 / Fold change vs veh, CACNA2D3 / RFU, DTX4 / Fold change vs veh, DTX4 / RFU, TFCP2 / Fold change vs veh, TFCP2 / RFU, GMCL1 /// GMCL1P1 / Fold change vs veh, GMCL1 /// GMCL1P1 / RFU, AEBP2 / Fold change vs veh, AEBP2 / RFU, SNHG1 /// SNORD22 /// SNORD25 /// SNORD26 /// SNORD27 /// SNORD28 /// SNORD29 /// SNORD31 / Fold change vs veh, SNHG1 /// SNORD22 /// SNORD25 /// SNORD26 /// SNORD27 /// SNORD28 /// SNORD29 /// SNORD31 / Fold change (Aza/veh), C12orf56 (ProbeSet 11735607_a_at) / Fold change (ACY-1035/veh), C12orf56 (ProbeSet 11735607_a_at) / Fold change (Aza/veh), FGFR1OP (ProbeSet 11751329_s_at) / Fold change (ACY-1035/veh), FGFR1OP (ProbeSet 11751329_s_at) / Fold change (Aza/veh), VPS36 (ProbeSet 11739960_a_at) / Fold change (ACY-1035/veh), VPS36 (ProbeSet 11739960_a_at) / RFU SYPL1 (11715823_x_at) / Fold change /veh SYPL1 (11715823_x_at) / RFU IGFBP7 (11715501_s_at) / Fold change /veh IGFBP7 (11715501_s_at) / RFU REEP3 (11722064_at) / Fold change /veh REEP3 (11722064_at) / RFU IGLL1 (11728026_x_at) / Fold change /veh IGLL1 (11728026_x_at): dose or concentration left out as unconfirmed. The class given is cell-based, human. The following applies: ProbeSet 11720154_at; LIST B.

In the case of `Nc1ncn([C@@H]2O[C@H](CO)[C@@H](O)[C@H]2O)c(=O)n1` [azacitidine], the “Fold change vs veh, NRIP1” value is reported as 0.86.
